From patent US5075304A, “Imidazoquinoxaline compounds and their preparation and use” (Novo Nordisk A/S, priority 1988, dated 1991)

What follows are compounds tested on benzodiazepine receptors (assay: in vivo displacement of 3H-flunitrazepam binding from brain benzodiazepine receptors). Conditions: dose reducing specific 3H-flunitrazepam binding in living mouse brain to 50% of control; test substance intraperitoneally 15 min before 3H-FNM i.v.
Parameters: species or system mice
Excerpt: The pharmaceutical properties of the compounds of the invention can be illustrated by determining their capability for displacing radioactive labelled flunitrazepam from benzodiazepine receptors.
The displacement activity of the compounds of the invention may be found by determining the ED50 value. The ED50 value represents the dose (mg/kg) of a test substance which causes the specific binding of flunitrazepam to benzodiazepine receptors in a living brain to be reduced to 50% of the control value.
Such an in vivo test is carried out as follows:
Principle. Twenty minutes after a dose of ^3 H-flunitrazepam (^3 H-FNM) (200 μCi/kg, i.v.) the amount of specific ^3 H-FNM binding to brain benzodiazepine receptors has reached its maximal value.
Test procedure. Suspensions of test substances (2 mg/ml) are prepared in 5% Duphasol-X (TM Duphar, castor oil-ethylene oxide derivative for emulsifying and solubilizing oil and other water-insoluble substances) by sonification for 10 min using a Branson B15 microtip ultrasonifier (setting 7). Groups of three mice (female, NMR, 18-22 grams) are injected with the test substance at 100 mg/kg intraperitoneally. Fifteen minutes after test substance administration the mice are challenged with 4 μCi intravenously of ^3 H-FNM (70-90 Ci/mole) in 200 μl physiological saline. Twenty minutes after ^3 H-FNM administration mice are sacrificed by decapitation, the forebrains rapidly excised (within 30 sec) and homogenized in 12 ml of icecold 25 mM KH2 PO4, pH 7.1, using an Ultra-Turrax homogenizer fitted with an N 10 shaft. […] The amounts of radioactivity on the filters are determined by conventional scintillation counting. […]
Results. The ED50 value is determined from dose response curves. If only one dose of test substance is administered the ED50 value is calculated as follows, provided that the inhibition of specific binding is within the range of 25-75%: [formula] where Co is specific binding in controls and Cx is specific binding in mice treated with test substance.
`O=c1c2c(-c3noc(C4CC4)n3)ncn2c2ccccc2n1Cc1ccccc1` [Compound 1, 5-benzyl-3-(5-cyclopropyl-1,2,4-oxadiazol-3-yl)-4,5-dihydro-4-oxo-imidazo[1,5-a]quinoxaline] was tested, and the ED50 was 1.2 mg/kg. `Cn1c(=O)c2c(-c3noc(C4CC4)n3)ncn2c2cccc(C(F)(F)F)c21` [Compound 2, 3-(5-cyclopropyl-1,2,4-oxadiazol-3-yl)-4,5-dihydro-5-methyl-4-oxo-6-trifluoromethyl-imidazo[1,5-a]quinoxaline] showed an ED50 of 0.09 mg/kg. `Cn1c(=O)c2c(-c3nc(C4CC4)no3)ncn2c2cccc(C(F)(F)F)c21` [Compound 6, 3-(3-cyclopropyl-1,2,4-oxadiazol-5-yl)-4,5-dihydro-5-methyl-4-oxo-6-trifluoromethylimidazo[1,5-a]quinoxaline] was tested, and the ED50 was 0.21 mg/kg.
